Assays:
Format in all cases: cell-based, human
REH cells = test: trypan blue exclusion, REH; conditions: 25 μg/ml taurolidine, versus MM6, K562, Jurkat
Method: FIGS. 8A and 8B depict cell viability and growth rates for REH cell line following taurolidine treatment, in terms of % trypan blue negative cells and % cell number, respectively. Cells were treated with various concentrations of taurolidine for 4 hours in AIM-V+0.01% BCS. After aliquots were collected for LDH assay, the remainder of the culture was rinsed in HBSS and resuspended in RPMI+10% BCS without taurolidine. Counts of trypan blue-negative cells (FIG. 8A), and total cell number (FIG. 8B), were recorded daily thereafter (with the measurement at Day 1 being made immediately after the 4 hour taurolidine treatment). […] Doubling times were determined under each condition, and expressed as a percentage of the rate of doubling of untreated cells. […]
In these experiments, integrity of cell membranes following taurolidine treatment was assessed by exclusion of trypan blue and by measuring the release of LDH in MM6, K-562, HL-60, and REH cells. […] A parallel aliquot of cells was lysed by three cycles of freeze/thaw and the quantity of LDH released was taken to be 100%. […]
HL-60 cells treated with 50 μl taurolidine. In these samples, LDH present in the culture medium was 8.3±2.3% of that released by completely lysed cells, compared with 2.3±0.8% measured in control cultures. […]

K-562 = test: growth rate after taurolidine treatment, K-562
Method: FIGS. 6A and 6B depict cell viability and growth rates for K562 cell line following taurolidine treatment, in terms of % trypan blue negative cells and % cell number, respectively. Cells were treated with various concentrations of taurolidine for 4 hours in AIM-V+0.01% BCS. After aliquots were collected for LDH assay, the remainder of the culture was rinsed in HBSS and resuspended in RPMI+10% BCS without taurolidine. Counts of trypan blue-negative cells (FIG. 6A), and total cell number (FIG. 6B), were recorded daily thereafter (with the measurement at Day 1 being made immediately after the 4 hour taurolidine treatment). Conditions were: no treatment (open circles); 25 μg/ml taurolidine (closed circles); 50 μg/ml taurolidine (open squares); 100 μg/ml taurolidine (closed squares); and vehicle alone (closed triangles). Doubling times were determined under each condition, and expressed as a percentage of the rate of doubling of untreated cells. These values are located to the right of the growth curves in (FIG. 6B). Cells were subcultured when they reached a concentration of 6×10^5 cells/ml. Data are mean±SEM of three experiments.
In these experiments, integrity of cell membranes following taurolidine treatment was assessed by exclusion of trypan blue and by measuring the release of LDH in MM6, K-562, HL-60, and REH cells. Since BCS contains significant amounts of LDH, these experiments were conducted on cells cultured in AIM-V+0.01% BCS. Four hour treatment of cells was conducted in AIM-V containing 0.01% BCS in order to allow subsequent LDH assay without interference from BCS (which occurs in when normal culture medium, containing 10% BCS, is used). Thus, MM6 cells (5×10^5 cells/ml) were treated with taurolidine for four hours in AIM-V+0.01% BCS, after which an aliquot of the cell suspension was removed for measurement of LDH release. A parallel aliquot of cells was lysed by three cycles of freeze/thaw and the quantity of LDH released was taken to be 100%. Remaining cells were rinsed in HBSS and resuspended in growth medium for measurement of growth rates.
HL-60 cells treated with 50 μl taurolidine. In these samples, LDH present in the culture medium was 8.3±2.3% of that released by completely lysed cells, compared with 2.3±0.8% measured in control cultures. […] After 4 hour treatment, cells were rinsed and returned to growth medium and monitored for viability and growth over the following 3 days. Concentrations of taurolidine from 25 μg/ml to 100 μ/ml were used in order to highlight differences in sensitivity of cell lines to taurolidine.
^b Growth rate was measured over three days following treatment.

ECV304 = test: subcellular-sized events by flow cytometry, ECV304; conditions: ECV304, after taurolidine treatment
Method: Less than 0.1% of ECV304 or GM5387 cells were TUNEL-positive 6 hours after treatment with taurolidine or anisomycin (Table VIII). Therefore, neither of these agents induce rapid DNA fragmentation in these cell types. However, there was approximately a 70% increase in the number of subcellular-sized events recorded by flow cytometry after taurolidine treatment of these cells, indicating some effect of taurolidine on cell integrity. These cell fragments were not stained by propidium iodide, consistent with them being apoptotic bodies.

HL-60 = test: TUNEL / propidium iodide flow cytometry, HL-60; conditions: for % TUNEL-positive: HL-60, taurolidine 100 μg/ml or anisomycin 1 μg/ml for 4 h, assayed at 6 hours, mean ± SD
Method: In the second method, DNA fragmentation was detected via TUNEL assay according to the manufacturer's instructions. With this methodology, 2×10^6 cells were fixed with 2% paraformaldehyde, permeabilized with 0.1% Triton X-100/0.1% citrate, incubated at 37° C. with terminal deoxynucleotidyl transferase and FITC-dUTP, rinsed and analyzed by flow cytometry. Enhanced FITC signal indicates apoptosis-specific DNA fragmentation. Gavriali, et al, "Identification of programmed cell death in situ via specific labeling of nuclear DNA fragmentation," J Cell Biol 119:493 (1992). Parallel aliquots of unfixed cells were treated with PI and FITC-conjugated anti-CD14 and analyzed by flow cytometry, in order to identify cells with permeable cell membranes (since PI binds to DNA but is excluded from cells with intact plasma membranes) and also to determine the cell-specificity of the apoptotic signal.
Consequently, TUNEL analysis was performed on PBMC at 3, 6, or 24 hours after treatment with 25 to 100 μg/ml taurolidine. Aliquots of harvested cells were also labeled with FITC-conjugated anti-CD14 antibodies and PI, which allowed identification of monocytes (CD14-positive cells) and cells with damaged cell membranes (PI-positive cells). […] Thus, nearly 75% of the monocytes were TUNEL-positive following treatment with 100 μg/ml taurolidine for six hours. Confirmation that the TUNEL-positive cells were monocytes was obtained by staining with FITC-conjugated anti-CD14.
In another study, TUNEL assays were performed on all cell lines 6 hours after cells were initially exposed to taurolidine (cells were treated for 4 hours, rinsed, and then incubated for 2 more hours before TUNEL assay was performed).
. Taurolidine and anisomycin induced apoptosis in MM6, HL-60, and Jurkat cells (Table VIII). MM6 and HL-60 cells were similarly effected, with >80% TUNEL-positive cells after 6 hours. Jurkat cells were less sensitive, with approximately 50% of cells induced to undergo apoptosis after taurolidine treatment. After 6 hours, 73% of anisomycin-treated REH cells were apoptotic, with less than 20% of taurolidine-treated REH cells being TUNEL-positive. However, assay of cells 24 hours after
^a Analysis by flow cytometry after staining cells with propidium
iodide and processing for TUNEL.
Data are percent of total cell-size events, and are expressed as mean ±
Cells were treated for 4 hours with taurolidine (100 μg/ml) or
anisomycin (1 μg/ml), and then assayed at 6 hours.

O=S1(=O)CCN(CN2CCS(=O)(=O)NC2)CN1 [taurolidine, 4,4'-methylenebis(perhydro-1,2,4-thiadiazin 1,1-dioxide)]
trypan blue staining after treatment, sensitivity (REH cells): more sensitive | activity at 50 µg/mL (K-562; Homo sapiens, K562, 72 h, K-562, 50 μg/ml for 4 h, growth over three days, read-out: growth rate (% of control)): 52% | activity at 100 µg/mL (K-562; Homo sapiens, K562, 72 h, K-562, 100 μg/ml for 4 h, growth over three days, read-out: growth rate (% of control)): 0% | sensitivity of cell growth among cell lines (K-562; K562): least affected | growth after taurolidine treatment (K-562; K562, 50 μg/ml or greater): inhibition of growth | increase in the number of subcellular-sized events (ECV304): ~70% | % TUNEL-Negative Cells (HL-60; HL-60, 50 μg/ml, 3 hours): 35% | % TUNEL-positive (HL-60): 91.9 ± 10.9% | % TUNEL-positive (HL-60; listed as Taurolidine): > 80% | cytotoxicity at 50 µg/mL (HL-60; Homo sapiens, HL-60, 3 h, read-out: % Propidium Iodide Positive Cells): 5%
